Earlier results, collected in patent US8778301B2, “Gamma-hydroxybutyrate compositions containing carbohydrate, lipid or amino acid carriers” (Orphan Medical, Inc., priority 2000, dated 2014).
Where a name gives a salt, the structure may show the parent alone.

Key:
[1] = in vivo
[2] = not given; remark: listed apart in the source
[3] = healthy volunteers, 12.5, 25 and 50 mg/kg
[4] = heroin and methadone withdrawal
[5] = patients
[6] = not given; remark: listed apart in the source
[7] = patients; remark: listed apart in the source
[8] = intravenous administration, patients

SMILES	duration of normal sequence of NREM and REM sleep (healthy human volunteers, low doses (about 30 mg/kg)) [h]	tolerance to sleep-inducing effects (low doses, over time)	signs and symptoms of narcolepsy (daytime sleepiness, cataplexy, sleep paralysis, hypnagogic hallucinations) [1]	organ or other toxicities in periodic clinical laboratory tests ([2]; long-term treatment of narcolepsy)	development of tolerance ([2]; patients treated for many years)	oral absorption and elimination processes [3]	symptoms of opiate withdrawal [4]	alcohol craving, daily drinks, alcohol withdrawal symptoms [5]	continuity of sleep ([6]; clinical trials)	delta sleep ([6]; clinical trials)	REM latency ([6]; human, in vivo)	sleep apnea ([6]; human, in vivo)	total sleep time and REM sleep ([6]; human, in vivo)	growth hormone levels [7]	intracranial pressure [8]
O=C(O)CCCO [GHB monosodium salt, sodium oxybate]	2 to 3	without the development of tolerance	–	–	–	–	–	–	–	–	–	–	–	–	–
O=C(O)CCCO [GHB, Gamma-hydroxybutyric acid]	–	–	substantially reduces the signs and symptoms of narcolepsy	have not indicated organ or other toxicities	without development of tolerance	capacity-limited	decrease the symptoms of opiate withdrawal	reduce alcohol craving, the number of daily drinks consumed, and the symptoms of alcohol withdrawal	improves the continuity of sleep	increases delta sleep	decreases REM latency	reduces sleep apnea	increases total sleep time and REM sleep	increase growth hormone levels	reduce intracranial pressure
